≈ marks a conversion by molar mass, not a printed value.

The subject of assay [1] is Escherichia coli. As to the kind of experiment: Antibacterial activity against Escherichia coli (vogel).
A further assay relates to Pseudomonas aeruginosa. As to the kind of experiment: Antibacterial activity against Pseudomonas aeruginosa (UI-18).
Assay [2] concerns Escherichia coli. Kind of assay: Antibacterial activity against Escherichia coli (H560).
A further assay deals with Staphylococcus aureus. Kind of assay: Antibacterial activity against Staphylococcus aureus (H228).
Assay [3] has as its target DNA gyrase (Escherichia coli) (UniProt P0AES6+P0AES4).
The subject of another assay is Klebsiella pneumoniae. Kind of assay: Antibacterial activity against Klebsiella pneumonia (MGH-2).
In another assay the test system is Streptococcus pneumoniae. Kind of assay: Antibacterial activity against Streptococcus pneumoniae (SV-1).

Consider `CCn1cc(C(=O)O)c(=O)c2cc(F)c(NCCN)nc21`, for which the MIC was 12.5 µg/mL (≈ 42.5 µM) with Escherichia coli [1]; 50 µg/mL (≈ 170 µM) against Pseudomonas aeruginosa; 25 µg/mL (≈ 85 µM) against Escherichia coli [2]; over 100 µg/mL against Staphylococcus aureus; 25 µg/mL (≈ 85 µM) in the assay on Klebsiella pneumoniae; over 100 µg/mL against Streptococcus pneumoniae. The same molecule registered a gyrase cleavage conc in assay [3] of 50 µg/mL.
Consider `CCn1cc(C(=O)O)c(=O)c2cc(F)c(N3CCN(CCCN(C)C)CC3)cc21`, for which the MIC in the assay on Escherichia coli [1] worked out at 6.3 µg/mL (≈ 15.6 µM); against Pseudomonas aeruginosa it was 12.5 µg/mL (≈ 30.9 µM); with Escherichia coli [2] it was 3.1 µg/mL (≈ 7.66 µM); against Staphylococcus aureus, 12.5 µg/mL (≈ 30.9 µM); in the assay on Klebsiella pneumoniae, 6.3 µg/mL (≈ 15.6 µM); against Streptococcus pneumoniae, 25 µg/mL (≈ 61.8 µM). Further, the gyrase cleavage conc in assay [3] worked out at 50 µg/mL.
Regarding `CCn1cc(C(=O)O)c(=O)c2cc(F)c(N3CCN(C(C)=N)CC3)cc21`, the MIC against Escherichia coli [1] turned out to be 0.8 µg/mL (≈ 2.22 µM); with Pseudomonas aeruginosa, 1.6 µg/mL (≈ 4.44 µM); against Escherichia coli [2], 0.2 µg/mL (≈ 0.555 µM); in the assay on Staphylococcus aureus it was 6.3 µg/mL (≈ 17.5 µM); against Klebsiella pneumoniae, 1.6 µg/mL (≈ 4.44 µM); in the assay with Streptococcus pneumoniae it was 12.5 µg/mL (≈ 34.7 µM). The molecule further gave a gyrase cleavage conc in assay [3] of 2.5 µg/mL.
`CCn1cc(C(=O)O)c(=O)c2ccc(N3CCNCC3)nc21`: the MIC in the assay with Escherichia coli [1] was 6.3 µg/mL (≈ 20.8 µM); against Pseudomonas aeruginosa it was 12.5 µg/mL (≈ 41.3 µM); against Escherichia coli [2] it was 3.1 µg/mL (≈ 10.3 µM); in the assay with Staphylococcus aureus, 50 µg/mL (≈ 165 µM); in the assay on Klebsiella pneumoniae, 12.5 µg/mL (≈ 41.3 µM); against Streptococcus pneumoniae, 50 µg/mL (≈ 165 µM). The molecule further had a gyrase cleavage conc in assay [3] of 75 µg/mL.
Turning to `CCn1cc(C(=O)O)c(=O)c2cc(F)c(N3CCSCC3)nc21`, the MIC was 1.6 µg/mL (≈ 4.74 µM) with Escherichia coli [1]; 6.3 µg/mL (≈ 18.7 µM) in the assay with Pseudomonas aeruginosa; 1.6 µg/mL (≈ 4.74 µM) in the assay with Escherichia coli [2]; 0.2 µg/mL (≈ 0.593 µM) against Staphylococcus aureus; 3.1 µg/mL (≈ 9.19 µM) with Klebsiella pneumoniae; 50 µg/mL (≈ 148 µM) with Streptococcus pneumoniae. The gyrase cleavage conc in assay [3] turned out to be 18 µg/mL.
For the molecule `CCn1cc(C(=O)O)c(=O)c2cc(F)c(/C=N/O)nc21`, the MIC against Escherichia coli [1] is 6.3 µg/mL (≈ 22.6 µM); in the assay on Pseudomonas aeruginosa, 100 µg/mL (≈ 358 µM); with Escherichia coli [2], over 100 µg/mL; against Staphylococcus aureus, 100 µg/mL (≈ 358 µM); in the assay with Klebsiella pneumoniae, 12.5 µg/mL (≈ 44.8 µM); in the assay on Streptococcus pneumoniae, 100 µg/mL (≈ 358 µM). Also, the gyrase cleavage conc in assay [3] came to 50 µg/mL.
Take `CCn1cc(C(=O)O)c(=O)c2cc(F)c(N3CCSCC3)cc21`: the MIC stood at 0.1 µg/mL (≈ 0.297 µM) with Escherichia coli [1]; 0.8 µg/mL (≈ 2.38 µM) in the assay on Pseudomonas aeruginosa; 0.1 µg/mL (≈ 0.297 µM) in the assay with Escherichia coli [2]; 0.006 µg/mL (≈ 0.0178 µM) against Staphylococcus aureus; 0.2 µg/mL (≈ 0.595 µM) in the assay with Klebsiella pneumoniae; 12.5 µg/mL (≈ 37.2 µM) against Streptococcus pneumoniae. Further, the gyrase cleavage conc in assay [3] worked out at 5 µg/mL.
With `CCn1cc(C(=O)O)c(=O)c2cc(F)c(N3CCC(C(N)=O)CC3)cc21`, the MIC with Escherichia coli [1] worked out at 6.3 µg/mL (≈ 17.4 µM); in the assay with Pseudomonas aeruginosa, 50 µg/mL (≈ 138 µM); in the assay on Escherichia coli [2], 25 µg/mL (≈ 69.2 µM); in the assay on Staphylococcus aureus it was 3.1 µg/mL (≈ 8.58 µM); with Klebsiella pneumoniae, 25 µg/mL (≈ 69.2 µM); against Streptococcus pneumoniae, 6.3 µg/mL (≈ 17.4 µM). The gyrase cleavage conc in assay [3] is 7.5 µg/mL.
Take `CCn1cc(C(=O)O)c(=O)c2cc(F)c(N3CCN(CCN)CC3)nc21`: the MIC against Escherichia coli [1] came out at 12.5 µg/mL (≈ 34.4 µM); in the assay on Pseudomonas aeruginosa it was 50 µg/mL (≈ 138 µM); against Escherichia coli [2], 12.5 µg/mL (≈ 34.4 µM); in the assay with Staphylococcus aureus, 50 µg/mL (≈ 138 µM); in the assay with Klebsiella pneumoniae it was 25 µg/mL (≈ 68.8 µM); against Streptococcus pneumoniae it was 12.5 µg/mL (≈ 34.4 µM). Moreover, the gyrase cleavage conc in assay [3] was 6.3 µg/mL.
With `CCn1cc(C(=O)O)c(=O)c2cc(F)c(SCCN)cc21`, the MIC with Escherichia coli [1] was found to be 0.8 µg/mL (≈ 2.58 µM); with Pseudomonas aeruginosa it was 3.1 µg/mL (≈ 9.99 µM); in the assay with Escherichia coli [2], 3.1 µg/mL (≈ 9.99 µM); in the assay with Staphylococcus aureus it was 25 µg/mL (≈ 80.6 µM); against Klebsiella pneumoniae, 1.6 µg/mL (≈ 5.16 µM); against Streptococcus pneumoniae it was 25 µg/mL (≈ 80.6 µM). In assay [3], this molecule had a gyrase cleavage conc of 5 µg/mL.
Turning to `CCn1cc(C(=O)O)c(=O)c2cc(F)c(N3CCN(CC#N)CC3)cc21`, the MIC against Escherichia coli [1] was determined as 0.4 µg/mL (≈ 1.12 µM); in the assay with Pseudomonas aeruginosa, 6.3 µg/mL (≈ 17.6 µM); in the assay with Escherichia coli [2] it was 0.8 µg/mL (≈ 2.23 µM); in the assay with Staphylococcus aureus it was 1.6 µg/mL (≈ 4.46 µM); against Klebsiella pneumoniae, 0.8 µg/mL (≈ 2.23 µM); in the assay with Streptococcus pneumoniae, 6.3 µg/mL (≈ 17.6 µM). In assay [3], this molecule yielded a gyrase cleavage conc of 10 µg/mL.
`CCn1cc(C(=O)O)c(=O)c2cc(F)c(N3CCC(N4CCN(C)CC4)CC3)cc21`: the MIC in the assay on Escherichia coli [1] was determined as 3.1 µg/mL (≈ 7.44 µM); against Pseudomonas aeruginosa it was 50 µg/mL (≈ 120 µM); against Escherichia coli [2], 12.5 µg/mL (≈ 30 µM); with Staphylococcus aureus, 1.6 µg/mL (≈ 3.84 µM); with Klebsiella pneumoniae, 12.5 µg/mL (≈ 30 µM); against Streptococcus pneumoniae, 6.3 µg/mL (≈ 15.1 µM). In assay [3], this molecule returned a gyrase cleavage conc of 50 µg/mL.
On to `CCn1cc(C(=O)O)c(=O)c2ccc(/C=N/O)nc21`, for which the MIC in the assay on Escherichia coli [1] is 12.5 µg/mL (≈ 47.8 µM); with Pseudomonas aeruginosa it was 100 µg/mL (≈ 383 µM); in the assay with Escherichia coli [2] it was over 100 µg/mL; in the assay on Staphylococcus aureus, 50 µg/mL (≈ 191 µM); in the assay with Klebsiella pneumoniae, 12.5 µg/mL (≈ 47.8 µM); with Streptococcus pneumoniae it was 100 µg/mL (≈ 383 µM). Moreover, the gyrase cleavage conc in assay [3] was 100 µg/mL.
`CCn1cc(C(=O)O)c(=O)c2cc([N+](=O)[O-])ccc21`: the MIC in the assay with Escherichia coli [1] was 12.5 µg/mL (≈ 47.7 µM); against Pseudomonas aeruginosa it was over 100 µg/mL; with Escherichia coli [2] it was 50 µg/mL (≈ 191 µM); in the assay with Staphylococcus aureus, over 100 µg/mL; in the assay on Klebsiella pneumoniae, 12.5 µg/mL (≈ 47.7 µM); in the assay with Streptococcus pneumoniae it was 100 µg/mL (≈ 381 µM). In addition, the gyrase cleavage conc in assay [3] was over 100 µg/mL.
As for `CCn1cc(C(=O)O)c(=O)c2cc(F)c(N3CCN(C)CC3)c(F)c21`, the MIC came to 0.2 µg/mL (≈ 0.569 µM) with Escherichia coli [1]; 0.8 µg/mL (≈ 2.28 µM) against Pseudomonas aeruginosa; 0.1 µg/mL (≈ 0.285 µM) with Escherichia coli [2]; 0.4 µg/mL (≈ 1.14 µM) in the assay with Staphylococcus aureus; 0.4 µg/mL (≈ 1.14 µM) against Klebsiella pneumoniae; 3.1 µg/mL (≈ 8.82 µM) in the assay with Streptococcus pneumoniae. This molecule also came in with a gyrase cleavage conc in assay [3] of 2.5 µg/mL.
Molecule `CCn1cc(C(=O)O)c(=O)c2cc(F)c(N3CCNCC3)cc21` displayed a gyrase cleavage conc in assay [3] of 1 µg/mL.
